Test results as given in PubChem BioAssay (NCI).
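Growth conditions: 96-well plates. Treatment: test compound, 48 hours, 5 concentrations. Analysis: linear interpolation between bracketing concentrations; unreached endpoints set to highest concentration. At the TGI there is no net growth.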

Legend:
Test in all cases: growth of human tumour cells (NCI), 48 h
NCI-H226 lung = system: NCI-H226 lung
M14 melanoma = system: M14 melanoma
ACHN renal = system: ACHN renal
EKVX NSCLC = system: EKVX NSCLC
MALME-3M melanoma = system: MALME-3M melanoma
NCI-H23 lung = system: NCI-H23 lung
HOP-18 NSCLC = system: HOP-18 NSCLC
COLO 205 colon = system: COLO 205 colon
OVCAR-4 ovarian = system: OVCAR-4 ovarian
XF 498 CNS = system: XF 498 CNS
KM12 colon = system: KM12 colon
SK-MEL-28 melanoma = system: SK-MEL-28 melanoma
A549 NSCLC = system: A549 NSCLC
HCT-116 colon = system: HCT-116 colon
SF-539 CNS = system: SF-539 CNS
NCI-H460 lung = system: NCI-H460 lung
HOP-62 NSCLC = system: HOP-62 NSCLC
HCC-2998 colon = system: HCC-2998 colon
K-562 leukemia = system: K-562 leukemia
OVCAR-5 ovarian = system: OVCAR-5 ovarian
HL-60(TB) leukemia = system: HL-60(TB) leukemia
SN12C renal = system: SN12C renal
IGROV1 ovarian = system: IGROV1 ovarian
SR leukemia = system: SR leukemia
A498 renal = system: A498 renal
SK-MEL-2 melanoma = system: SK-MEL-2 melanoma
SNB-19 CNS = system: SNB-19 CNS
CCRF-CEM leukemia = system: CCRF-CEM leukemia
SF-268 CNS = system: SF-268 CNS
UO-31 renal = system: UO-31 renal
RPMI-8226 leukemia = system: RPMI-8226 leukemia
OVCAR-8 ovarian = system: OVCAR-8 ovarian
OVCAR-3 ovarian = system: OVCAR-3 ovarian
UACC-62 melanoma = system: UACC-62 melanoma
SK-MEL-5 melanoma = system: SK-MEL-5 melanoma
U251 CNS = system: U251 CNS
DLD-1 colon = system: DLD-1 colon
NCI-H522 lung = system: NCI-H522 lung
KM20L2 colon = system: KM20L2 colon
SNB-75 CNS = system: SNB-75 CNS
MOLT-4 leukemia = system: MOLT-4 leukemia
HT29 colon = system: HT29 colon
SF-295 CNS = system: SF-295 CNS
CAKI-1 renal = system: CAKI-1 renal
HOP-92 NSCLC = system: HOP-92 NSCLC
TK-10 renal = system: TK-10 renal
LOX IMVI melanoma = system: LOX IMVI melanoma
DMS 114 small cell lung = system: DMS 114 small cell lung
SK-OV-3 ovarian = system: SK-OV-3 ovarian
DMS 273 small cell lung = system: DMS 273 small cell lung
UACC-257 melanoma = system: UACC-257 melanoma
786-0 renal = system: 786-0 renal
HCT-15 colon = system: HCT-15 colon
SW-620 colon = system: SW-620 colon
SNB-78 CNS = system: SNB-78 CNS
M19-MEL melanoma = system: M19-MEL melanoma
RXF 393 renal = system: RXF 393 renal
LXFL 529 NSCLC = system: LXFL 529 NSCLC

With C=CCSc1ncnc2c1ncn2C1OC(CO)C(O)C1O (centres undefined) the TGI (NCI-H226 lung) was > 100 µM, the TGI (M14 melanoma) was > 100 µM and the TGI (ACHN renal) was > 100 µM. The TGI (EKVX NSCLC) was > 100 µM, the TGI (MALME-3M melanoma) was > 100 µM and the TGI (NCI-H23 lung) was > 100 µM. The TGI (HOP-18 NSCLC) was > 100 µM, the TGI (COLO 205 colon) was > 100 µM and the TGI (OVCAR-4 ovarian) was > 100 µM. The TGI (XF 498 CNS) was > 100 µM, the TGI (KM12 colon) was > 100 µM and the TGI (SK-MEL-28 melanoma) was > 100 µM. The TGI (A549 NSCLC) was > 100 µM, the TGI (HCT-116 colon) was > 100 µM and the TGI (SF-539 CNS) was > 100 µM. For the same molecule, the TGI (NCI-H460 lung) was > 100 µM, the TGI (HOP-62 NSCLC) was > 100 µM and the TGI (HCC-2998 colon) was > 100 µM. For the same molecule, the TGI (K-562 leukemia) was > 100 µM, the TGI (OVCAR-5 ovarian) was > 100 µM and the TGI (HL-60(TB) leukemia) was > 100 µM. For the same molecule, the TGI (SN12C renal) was > 100 µM, the TGI (IGROV1 ovarian) was > 100 µM and the TGI (SR leukemia) was > 100 µM. For the same molecule, the TGI (A498 renal) was > 100 µM, the TGI (SK-MEL-2 melanoma) was > 100 µM and the TGI (SNB-19 CNS) was > 100 µM. For the same molecule, the TGI (CCRF-CEM leukemia) was > 100 µM, the TGI (SF-268 CNS) was > 100 µM and the TGI (UO-31 renal) was > 100 µM. For the same molecule, the TGI (RPMI-8226 leukemia) was > 100 µM, the TGI (OVCAR-8 ovarian) was 18.5 µM and the TGI (OVCAR-3 ovarian) was > 100 µM. For the same molecule, the TGI (UACC-62 melanoma) was > 100 µM, the TGI (SK-MEL-5 melanoma) was > 100 µM and the TGI (U251 CNS) was > 100 µM. The TGI (DLD-1 colon) was > 100 µM, the TGI (NCI-H522 lung) was > 100 µM and the TGI (KM20L2 colon) was > 100 µM. The TGI (SNB-75 CNS) was > 100 µM, the TGI (MOLT-4 leukemia) was > 100 µM and the TGI (HT29 colon) was > 100 µM. The TGI (SF-295 CNS) was > 100 µM, the TGI (CAKI-1 renal) was > 100 µM and the TGI (HOP-92 NSCLC) was > 100 µM. The TGI (TK-10 renal) was > 100 µM, the TGI (LOX IMVI melanoma) was > 100 µM and the TGI (DMS 114 small cell lung) was 70.4 µM. For the same molecule, the TGI (SK-OV-3 ovarian) was > 100 µM, the TGI (DMS 273 small cell lung) was > 100 µM and the TGI (UACC-257 melanoma) was > 100 µM. For the same molecule, the TGI (786-0 renal) was > 100 µM, the TGI (HCT-15 colon) was > 100 µM and the TGI (SW-620 colon) was > 100 µM. For the same molecule, the TGI (SNB-78 CNS) was > 100 µM and the TGI (M19-MEL melanoma) was > 100 µM.

In the case of CC1CCC2(OCCO2)[C@]2(C)CC(O)C(=O)C=C12 (some centres undefined), the TGI (NCI-H226 lung) is reported as > 100 µM, the TGI (M14 melanoma) is reported as > 100 µM and the TGI (ACHN renal) is reported as > 100 µM. The TGI (EKVX NSCLC) was > 100 µM, the TGI (MALME-3M melanoma) was > 100 µM and the TGI (NCI-H23 lung) was > 100 µM. The TGI (HOP-18 NSCLC) was > 100 µM, the TGI (COLO 205 colon) was > 100 µM and the TGI (XF 498 CNS) was > 100 µM. The TGI (KM12 colon) was > 100 µM, the TGI (SK-MEL-28 melanoma) was > 100 µM and the TGI (A549 NSCLC) was > 100 µM. The TGI (SF-539 CNS) was > 100 µM, the TGI (NCI-H460 lung) was > 100 µM and the TGI (HCC-2998 colon) was > 100 µM. The TGI (K-562 leukemia) was > 100 µM, the TGI (OVCAR-5 ovarian) was > 100 µM and the TGI (HL-60(TB) leukemia) was > 100 µM. For the same molecule, the TGI (SN12C renal) was > 100 µM, the TGI (IGROV1 ovarian) was > 100 µM and the TGI (SR leukemia) was > 100 µM. For the same molecule, the TGI (SK-MEL-2 melanoma) was > 100 µM, the TGI (SNB-19 CNS) was > 100 µM and the TGI (CCRF-CEM leukemia) was > 100 µM. For the same molecule, the TGI (SF-268 CNS) was > 100 µM, the TGI (UO-31 renal) was > 100 µM and the TGI (RPMI-8226 leukemia) was > 100 µM. For the same molecule, the TGI (OVCAR-8 ovarian) was > 100 µM, the TGI (OVCAR-3 ovarian) was > 100 µM and the TGI (SK-MEL-5 melanoma) was > 100 µM. For the same molecule, the TGI (U251 CNS) was > 100 µM, the TGI (DLD-1 colon) was > 100 µM and the TGI (NCI-H522 lung) was > 100 µM. For the same molecule, the TGI (MOLT-4 leukemia) was > 100 µM, the TGI (HT29 colon) was > 100 µM and the TGI (SF-295 CNS) was > 100 µM. The TGI (HOP-92 NSCLC) was > 100 µM, the TGI (TK-10 renal) was > 100 µM and the TGI (DMS 114 small cell lung) was > 100 µM. The TGI (SK-OV-3 ovarian) was > 100 µM, the TGI (DMS 273 small cell lung) was > 100 µM and the TGI (RXF 393 renal) was > 100 µM. For the same molecule, the TGI (UACC-257 melanoma) was > 100 µM, the TGI (786-0 renal) was > 100 µM and the TGI (HCT-15 colon) was > 100 µM. For the same molecule, the TGI (SW-620 colon) was > 100 µM, the TGI (M19-MEL melanoma) was > 100 µM and the TGI (LXFL 529 NSCLC) was > 100 µM.
